Source: US20260021098A1, “METHODS OF TREATMENT OF JAK INHIBITION RESPONSIVE CONDITIONS WITH DEUTERATED JAK INHIBITORS” (Sun Pharmaceutical Industries, Inc., priority 2024, published 2026)

Assay: Drug-drug interaction study of Compound (I) and itraconazole, plasma concentration data
Assay type: in vivo, human
Details: 12 mg Compound (I) with 200 mg itraconazole (Test), healthy volunteers

- t1/2: 4.62 h
Compound: [2H]C1([2H])C([C@@H](CC#N)n2cc(-c3ncnc4[nH]ccc34)cn2)C([2H])([2H])C([2H])([2H])C1([2H])[2H] [Compound (I), (R)-3-(4-(7H-pyrrolo[2,3-d]pyrimidin-4-yl)-1H-pyrazol-1-yl)-3-(cyclopentyl-2,2,3,3,4,4,5,5-d8) propanenitrile]
